Data reported in patent US9844554B2 (Neurogastrx, Inc., priority 2014, dated 2017).

How the values were obtained:
[1] = system: gastric motility in canines; test: Antral manometry (gastric motility) in canines; type: in vivo, canine (hound dogs)
Protocol: Two healthy female hound dogs (24-28 kg) were involved in this study. Animals were fed an ad libitum chow diet (LabDiet®). After an overnight fast, the dogs were anesthetized with Pentothal (sodium thiopental, 11 mg/kg IV; Abbott Laboratories, North Chicago, Ill.) and maintained on 2-4% isoflurane (Abbott Laboratories) in oxygen (1 L/min) carrier gases delivered from a ventilator after endotracheal intubation. A cannula was placed in the jejunum 20 cm distal to the pylorus for the assessment of antral motility. Dogs were allowed to recover in their individual cages for 2 weeks. All experiments were performed after the dogs were completely recovered from the surgical procedure. The study was performed according to the National Institutes of Health Guidelines on the use of laboratory animals and approved by the Animal Care and Use Committee of the University of Texas Medical Branch at Galveston, Tex. To investigate the effect of the drugs on antral manometry, the study of each drug dose was done on three randomized sessions on separate days following the consumption of one can of solid dog food: 1) a Control session: In which animals received the vehicle only; 2) Dose I session: in which the lower dose of the drug was used; and 3) Dose II session: in which the higher dose of the drug was used (please refer to table for drug doses). Drug administration was performed according to Table 4, below. Antral manometry was performed as follows. Following an overnight fast, an intraluminal water-perfused manometry catheter was inserted into the antrum through the jejunal cannula. Antral manometry recording was initiated after the consumption of one can of solid food and continued for 3 hours. The catheter contained 3 manometric sensors at a 1 cm interval. Dogs were given 10 minutes of accommodation, prior to the start of the recording. For data analysis, motility index (MI), defined as the integrated area (area under curve—AUC) between baseline and contractions per hour, was calculated. For statistical analysis, the Student's t-test was used for assessment of individual differences between groups (high dose, low dose of each drug) compared to control—Microsoft®Excel 2002). All values are expressed as mean±SEM. Significance was considered when p value was ≦0.05.

[2] = system: gastric emptying in Sprague-Dawley rats; test: Solid gastric emptying in rodents; type: in vivo, rat
Protocol: The animals received a standard laboratory rat chow and tap water ad libitum. The rats were around 400 g at 14 weeks age when used in gastric emptying study. Drugs: S-Carbidopa was purchased from Sigma (#: C1335). Stock solution of S-Carbidopa was prepared at 5 mg/ml using DMSO as solvent. 80 μl stock solution was further diluted into 1 ml distilled water to make 0.4 mg/ml. The effect of S-Carbidopa (1 mg/kg) on solid gastric emptying was studied. Procedures: Male SD rats were involved in this study. Rats were fasted in cages with metal wired mesh for 24 hours with free access to water; S-carbidopa (1 mg/kg) was administered to the rats by oral gavage. Control rats were not administered S-carbidopa. 15 minutes following administration, rats were given access to 2 g of rat chow pellets for ten minutes. All rats completely ingested the chow within the 10 minute time frame. Rats were sacrificed by sodium pentobarbital (100 mg/kg) overdose 90 min after feeding. The stomach was surgically isolated and removed. Gastric contents were recovered from the stomach, air dried for 48 hours and then weighed. Solid gastric emptying was calculated according to the following formula: Gastric emptying (%)=[1−(dried gastric content in g)/2 g]×100. All values are expressed as mean±SEM.

[3] = system: cardiac action potentials in dogs; test: Canine cardiac action potentials by electrocardiography and telemetry; type: in vivo, dog; conditions: for QTc intervals: oral gavage, 1-6 hours post-dose, vs vehicle
Description: Surgical Implantation of the Telemetry Device and ECG Leads. Anesthesia is introduced to dogs. Balanced gaseous anesthesia is used throughout the surgical procedure. Once anesthetized, animals are shaved and surgically scrubbed, encompassing surgical sites of the right inguinal area, chest and right lateral abdomen. Throughout the surgical procedure, animals are monitored for continuous assessment of vital signs. An incision is made along the right medial thigh and the femoral artery exposed by blunt dissection. Another incision is made in the lateral lumbar area cranial to the iliac crest for a tunneling needle to be passed subcutaneously from the incision on the medial thigh to the lumbar incision. A blood pressure catheter is passed through the needle from the lumbar incision and the needle removed. The femoral artery is ligated distally and incised to insert a catheter that is advanced until the tip resided in the femoral artery/abdominal aorta. The catheter is then secured by ligation. The incision in the lumbar area is enlarged and a subcutaneous pocket created in the left dorsal lumbar area to hold the transmitter body. The transmitter (e.g., Data Sciences International, St Paul, Minn., USA) is inserted into the subcutaneous pocket and secured body. Electrocardiography (ECG) leads are positioned. The incision is closed. Postoperative recovery lasts, e.g., about 2 weeks during which supplemental analgesics/antibiotics are administered as needed. Once the postoperative recovery period is complete, the animal is examined for study acceptability by the staff veterinarian and the implanted transmitter signal verified.
Study Design. […] ECGs, heart rate and arterial blood pressure data are recorded 1 hour prior to and then continuously for at least 6 hours following compound and/or vehicle administration. A blood sample for determination of compound plasma concentrations is collected from all subjects at approximately 6 h post-dose.
ECG Analysis. An ECG waveform morphology assessment for the entire monitoring period is completed for each dog by a safety pharmacologist or veterinarian cardiologist. Standard ECG intervals (PR, RR, QRS and QT) are automatically measured by the data acquisition system and reported as, e.g., 10 min averages. The signals are collected with Data Sciences International Systems hardware. PR and QT manual overreads are conducted as appropriate. The manual measurements are completed from 50 mm s^−1 tracings at 30 min intervals. A mean of the three waveforms per time point are reported. QT intervals are corrected for heart rate (QTc) values by, e.g., using the formula by Funck-Bretano and Jaillon (1993).
Statistical Analysis. […] Dose-level averages (and accompanying standard deviation (s.d.) of these baseline-adjusted 10 min averages are calculated across study animals. ANOVA (e.g., repeated measures ANOVA) are applied to these baseline-adjusted averages. Pairwise t-tests are applied within the ANOVA to identify the presence of significant differences of the dose levels relative to vehicle. These t-tests are performed at a 0.05/2=0.025 significance level, so that the overall error rate across the comparisons in a given interval are not higher than 0.05. ECG interval data (reported at 30 min intervals) are analyzed using, e.g., repeated-measures ANOVA techniques similar to the systemic blood pressure and heart rate data described above.

hERG channel = hERG channel (Homo sapiens, UniProt Q12809); test: hERG voltage clamp assay in hERG-expressing cultured cells; type: cell-based; conditions: approximate, from voltage clamp data, read-out: concentration necessary to inhibit 50% of the tail currents mediated by hERG channels
Sequence of hERG channel (Q12809 whole entry): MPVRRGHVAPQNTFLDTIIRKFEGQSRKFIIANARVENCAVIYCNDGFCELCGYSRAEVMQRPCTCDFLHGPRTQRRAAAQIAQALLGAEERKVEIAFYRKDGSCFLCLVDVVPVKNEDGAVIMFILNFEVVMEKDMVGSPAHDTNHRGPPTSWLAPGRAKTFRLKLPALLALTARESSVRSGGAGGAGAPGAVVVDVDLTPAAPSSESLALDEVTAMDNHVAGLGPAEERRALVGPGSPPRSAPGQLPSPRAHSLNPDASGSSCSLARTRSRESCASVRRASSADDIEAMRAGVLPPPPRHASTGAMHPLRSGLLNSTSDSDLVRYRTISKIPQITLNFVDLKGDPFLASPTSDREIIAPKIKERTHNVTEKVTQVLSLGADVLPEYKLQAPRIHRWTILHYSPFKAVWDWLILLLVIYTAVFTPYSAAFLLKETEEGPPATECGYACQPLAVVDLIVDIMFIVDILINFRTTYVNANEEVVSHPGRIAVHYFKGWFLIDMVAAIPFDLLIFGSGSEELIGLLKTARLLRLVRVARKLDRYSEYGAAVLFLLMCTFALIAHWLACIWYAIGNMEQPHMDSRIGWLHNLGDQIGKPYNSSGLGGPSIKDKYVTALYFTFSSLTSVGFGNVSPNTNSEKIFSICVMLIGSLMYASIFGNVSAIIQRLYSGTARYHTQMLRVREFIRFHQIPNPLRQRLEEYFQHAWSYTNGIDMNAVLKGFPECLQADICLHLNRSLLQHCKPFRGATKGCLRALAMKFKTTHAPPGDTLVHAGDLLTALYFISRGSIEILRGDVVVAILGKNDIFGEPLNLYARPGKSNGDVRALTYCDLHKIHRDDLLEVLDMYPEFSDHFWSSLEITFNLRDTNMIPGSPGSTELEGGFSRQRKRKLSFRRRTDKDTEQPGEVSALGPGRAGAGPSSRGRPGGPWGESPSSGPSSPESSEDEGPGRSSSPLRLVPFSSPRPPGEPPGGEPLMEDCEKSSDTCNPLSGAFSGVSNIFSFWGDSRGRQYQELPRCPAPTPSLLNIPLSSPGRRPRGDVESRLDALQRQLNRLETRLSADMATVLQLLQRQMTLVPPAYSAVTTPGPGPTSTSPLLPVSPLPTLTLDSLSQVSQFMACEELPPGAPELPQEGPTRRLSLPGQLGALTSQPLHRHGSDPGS

α1 = test: Radioligand binding affinity, α1
5HT2 = test: Radioligand binding affinity, 5HT2
D3 = D3 (Homo sapiens, UniProt P35462); test: Radioligand binding affinity, D3
Sequence of D3 (P35462 whole entry): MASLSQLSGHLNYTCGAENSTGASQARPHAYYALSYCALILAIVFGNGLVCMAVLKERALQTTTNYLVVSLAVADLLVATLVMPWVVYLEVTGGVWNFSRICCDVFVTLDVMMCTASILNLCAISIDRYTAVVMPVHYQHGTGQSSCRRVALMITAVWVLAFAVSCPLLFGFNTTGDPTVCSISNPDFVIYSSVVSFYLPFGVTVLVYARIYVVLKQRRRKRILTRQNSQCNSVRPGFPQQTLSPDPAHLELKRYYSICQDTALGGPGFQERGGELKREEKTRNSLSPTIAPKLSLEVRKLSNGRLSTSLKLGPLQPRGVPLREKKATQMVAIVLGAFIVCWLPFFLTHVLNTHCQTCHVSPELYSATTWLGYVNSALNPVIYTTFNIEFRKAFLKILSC

Compound: Cl.NCCc1ccc(O)c(O)c1 [dopamine hydrochloride, Dopamine hydrochloride]
- motility index (MI), antral manometry ([1]; 50 mg/canine IV immediately before meal, all channels, p=0.06): decreased MI

Compound: C[C@@](Cc1ccc(O)c(O)c1)(NN)C(=O)O [S-Carbidopa, (25)-3-(3,4-dihydroxyphenyl)-2-hydrazino-2-methylpropanoic acid]
- motor dysfunction ([2]; rats administered carbidopa): no motor dysfunction was observed
- solid gastric emptying compared to control rats ([2]; rats, initial results): improves solid gastric emptying
- QTc intervals [3]: no significant increases in QTc intervals
- motor dysfunction [1]: no motor dysfunction was observed
- motility index (MI), antral manometry ([1]; 1 mg/kg IV 15 min prior to meal, all three channels, p=0.05): robustly increased MI

Compound: CS(=O)(=O)c1ccc2c(c1)N(CCCN1CCC(C(N)=O)CC1)c1ccccc1S2 [Metopimazine, 1-[3-[2-(methylsulfonyl)-10H-phenothiazin-10-yl]propyl]-piperidine-4-carboxamide]
- IC50 (hERG channel): ~3000 nM
- Ki (α1): 1.9 nM
- overall increase in gastric emptying as compared to vehicle control ([2]; rats, pooling the 3 mg/kg and 10 mg/kg doses): about 20%
- QTc intervals [3]: no significant increases in QTc intervals
- motor dysfunction [1]: no motor dysfunction was observed
- Ki (5HT2): 15 nM

Compound: CS(=O)(=O)c1ccc2c(c1)N(CCCN1CCC(C(=O)O)CC1)c1ccccc1S2 [Metopimazine-Acid, metopimazine acid]
- IC50 (hERG channel): > 10000 nM
- Ki (D3): > 100 nM
- Ki (α1): 210 nM
- QTc intervals [3]: no significant increases in QTc intervals
- Ki (5HT2): 370 nM

Compound: CN(CCOc1ccc(NS(C)(=O)=O)cc1)CCc1ccc(NS(C)(=O)=O)cc1 [dofetilide]
- incidence of ECG abnormalities ([3]; 0.3 mg/kg oral gavage): increases the incidence of premature ventricular contractions, T-wave abnormalities, and right bundle branch block
- QTc intervals [3]: QTc intervals are increased
